Read-outs that look alike come from different tables or passages of the source.
How the values were obtained:
Exposure-safety analysis = format: in vivo, human; conditions: logistic regression
Population PK = format: in vivo, human
[1] = MURANO popPK evaluation ref 24; cited from earlier work
[2] = legacy popPK analysis ref 20; cited from earlier work

CC1(C)CCC(CN2CCN(c3ccc(C(=O)NS(=O)(=O)c4ccc(NCC5CCOCC5)c([N+](=O)[O-])c4)c(Oc4cnc5[nH]ccc5c4)c3)CC2)=C(c2ccc(Cl)cc2)C1 [venetoclax]
p value, association of CmeanSS,nominal with probability of SAEs (Exposure-safety analysis): 0.214
p value, association of CmeanSS,nominal with probability of grade ≥ 3 infections (Exposure-safety analysis): 0.149
rituximab co-administration effect: increase in CL/F (Population PK; current analysis): 7%
increase in F1 (Population PK; dose decrease from 400 to 200 mg): 11.0%
decrease in F1 (Population PK; dose increase from 400 to 800 mg): 9.9%
decrease in F1 (Population PK; fasting state relative to low-fat state): 66.2%
V2/F lower (Population PK; females than males): 29.7%
effect of obinutuzumab co-administration on CL/F and F1 (Population PK; forward addition covariate testing): no effect
increase in F1 (Population PK; high-fat meal relative to low-fat): 44.3%
relationship between CL/F and body weight, age, gender, mild or moderate hepatic or renal impairment, CrCL, bilirubin, ALT, AST, albumin, P-glycoprotein or weak CYP3A inhibitors (Population PK; human, in vivo): no relationship was observed
increase in F1 (Population PK; meal-fed state without specification of fat content): 28.9%
increase in F1 (Population PK; moderate-fat meal relative to low-fat): 40.4%
V2/F higher (Population PK; patients compared with healthy individuals): 73.3%
decrease in CL/F (Population PK; with OATP1B3 hepatic uptake transporter inhibitors): 13.6%
decrease in CL/F (Population PK; with moderate CYP3A inhibitors): 13.9%
decrease in CL/F (Population PK; with strong CYP3A inhibitors): 82.2%
rituximab co-administration effect: decrease in CL/F [1]: 7%
rituximab co-administration effect: increase in CL/F [2]: 22%

Reference: article PMC9309146 (Advances in Therapy, 2022)
